Experiments:
[1] = system: cherry tomato (Suncherry Pure); assay: Sugar content and acidity analysis of tomato fruit juice; assay type: in vivo; settings: 10 mM sprinkled once a week
Protocol: After the plants of four root clumps uniformly grew, and flower buds began to appear, water (Con.), 10 mM L-isoleucine aqueous solution (Ile), or 10 mM proline aqueous solution (Pro) was sprinkled on the whole plants once a week. The sprinkled volume was adjusted in accordance with the growth of the plants, and it was 15 to 30 mL per one root clump.
Mature tomato fruit were taken from cherry tomato plants of each experimental group in the same manner as described in iii) above, and fruit juice was pressed out from each fruit. Glucose content, fructose content, and acidity of each fruit juice extract were analyzed. Analysis of glucose and fructose was performed for a 20-fold diluted solution of fruit juice by using a food analysis reagent kit, F-Kit (Saccharose (Sucrose)/D-Glucose/D-Fructose Kit (Roche)) and DU800 Spectrophotometer (Beckman Coulter) according to the manuals of the kit and instrument. Acidity analysis was performed by using a pocket acidity meter (PAL-AC1, ATAGO).

[2] = system: Psy, Pds and Zds genes; assay: Real-time PCR of genes involved in carotenoid synthesis in leaves; assay type: in vivo, cherry tomato; settings: 10 mM Ile, leaves 24 hours after sprinkling
Protocol: A 10 mM isoleucine aqueous solution (Ile) or water (Con.) was sprinkled on leaf surfaces of cherry tomato plants, and RNA was isolated from the leaves 24 hours afterward. By using the isolated RNA, expression of the genes that participate in the biosynthesis of carotenoids, genes of phytoene synthase (Psy), phytoene desaturase (Pds), and ξ-carotene desaturase (Zds), were analyzed. The extraction of RNA, synthesis of cDNA, and real-time PCR analysis were conducted in the same manner as described above.

[3] = system: LOX, JAR1, PI and MYC2 genes; assay: Investigation of isoleucine concentration for sprinkling (I): gene expression; assay type: in vivo, cherry tomato (Suncherry Pure); settings: 1 mM, 4 mM, 7 mM or 10 mM Ile, 20 mL per plant, sprinkled twice; leaves 3 hours after second sprinkling
Protocol: One week afterward, Ile was sprinkled again in the same manner, the leaves were collected 3 hours thereafter, and expression of the LOX, JAR1, PI and MYC2 genes were analyzed in the same manner as described in Example 5.

[4] = system: LOX, JAR1, PI and MYC2 genes; assay: Investigation of isoleucine concentration for sprinkling (II): gene expression; assay type: in vivo, tomato (Caddy); settings: 50 mM Ile, 3 mL on leaf surfaces (0.01, 0.1, 50, 100 mM tested)
Protocol: Tomato plants (variety: Caddy, Tokita Seed) were cultivated in a biotron room in the same manner as described in Example 1. Three weeks after sowing, 3 mL of water, or a 0.01 mM, 0.1 mM, 50 mM, or 100 mM isoleucine aqueous solution (Ile) was sprinkled on leaf surfaces of each plant, sampling was performed from the second foliage leaves, and expression of LOX, JAR1, PI and MYC2 genes were analyzed in the same manner as described in Example

[5] = system: middle size fruit-bearing tomato (Tsukutsuku-shi); assay: Ripening and harvestable bunch number of middle size fruit-bearing tomato (Tsukutsuku-shi); assay type: in vivo; settings: 3 mM Ile + 0.2% Squash
Protocol: For the test, middle size fruit-bearing tomato plants in the second half of their growth (variety, Tsukutsuku-shi) that were cultivated in a greenhouse and bore fruit of the 12th tier were used. Neighboring 12 root clumps of the tomato plants were selected, 6 root clumps of them were used for control group receiving no treatment, and the other 6 root clumps were used for the Ile treatment group. […] The total volume of the solution sprinkled on the plants of 6 root clumps was 600 ml. After the treatment, the change in color of tomatoes was confirmed and harvested from each bunch on 11th, […], and 27th days. When substantially all the fruit colored (ripened), or many fruit were ready to overmature, that is, when the top of the fruit was still green, the fruit were harvested. The numbers of bunches harvested on the 11th day after the treatment were 3 for the no treatment group, and 7 for the Ile treatment group. The numbers of bunches harvested on the 18th day after the treatment were 4 for the no treatment group, and 3 for the Ile treatment group.

[6] = system: VR callus derived from European grape; assay: Anthocyanin content of grape calluses treated with amino acids; assay type: cell-based, Vitis vinifera L.
Protocol: A cell line (VR, management number RPC00003) derived from European grape (Vitis vinifera L.) and stored in the Institute of Physical and Chemical Research, BioResource Center was subcultured on the MS agar medium. The subcultured VR callus was transferred to the MS agar medium containing a 5 mM solution of a different amino acid, and cultured. For the positive control, abscisic acid (ABA), for which coloring-promoting effect is known, was used at 100 μM (Jeong et al., Plant Science, 167:247-252, 2004). On the 5th day after the transfer, the callus was lyophilized and ground, and anthocyanin was extracted from it by using a 1% HCl/MeOH solution. Absorbance of the extract was measured at 530 nm, and the content of anthocyanin was measured by using cyanidine 3-glucoside as a standard substance.
(2) In the same manner as described above, anthocyanin content of grape calluses treated with isoleucine and proline, respectively, were measured.

[7] = system: rice seeds; settings: rice seeds treated with 0.2 to 20 mM isoleucine; cited from earlier work

## CC[C@H](C)[C@H](N)C(=O)O [Ile, L-isoleucine]
[1]
  glucose content and fructose content of the fruit, comparison of groups: almost the same as those of the control
[1]; fruit juice of mature fruit
  Acidity: 0.46%
  Fructose: 13.3 g/L
  Glucose: 13.3 g/L
[2]
  expression of Pds: increased
  expression of Psy: increased
  expression of Zds: increased
[3]
  Expression of the LOX, JAR1, PI and MYC2 genes: increased substantially in an Ile concentration-dependent manner
[4]
  Expression of the LOX, JAR1, PI and MYC2 genes: promoted
[5]; 10 labeled bunches, no treatment group: 3
  number of bunches harvested on the 11th day after the treatment: 7
[5]; no treatment group: 3
  number of bunches harvested on the 27th day after the treatment: 1
[5]; no treatment group: 4
  number of bunches harvested on the 18th day after the treatment: 3
[5]; no treatment group: 15 of 85
  number of immature (unripened, green) fruits among the harvested fruit of 10 bunches: 8
[5]; no treatment group: 85
  total harvested fruit of 10 bunches: 86
[6]; 5 mM, 5th day
  anthocyanin content of callus, comparison of amino acids: highest
[6]; Ile of 1 mM or higher, Pro compared with Ile
  change in color of the grape callus (anthocyanin content): promoted
[7]
  production of momilactones A and B: promoted
